# Data as given in article PMC7145665, “A pre-catalytic non-covalent step governs DNA polymerase β fidelity” (Nucleic Acids Research, 2019).
# Tests used:
# [1] = molecular target: T1, WT pol β (Homo sapiens, UniProt P06746); test: Single turnover polymerase activity (rapid-quench), WT pol β; assay type: biochemical; conditions: for Specificity (kpol/KD) / kpol / Kd: templating base C; for Kd: apparent dNTP dissociation constant; for D KD (i/c): KD(incorrect)/KD(correct) / D kpol (c/i): kpol(correct)/kpol(incorrect): dCTP incorrect, dGTP correct
# T1 construct: made in house
# Protocol: (§1) A solution containing 50 nM DNA and 200 nM polymerase was rapidly mixed with varying concentrations of dNTP at 37 °C in 50 mM Tris pH 8.0, 20 mM NaCl, 10 mM MgCl2, 2 mM DTT and 10% glycerol using a KinTek rapid-quench flow apparatus. Reactions were quenched with EDTA and the product was separated from the initial reactant on a 20% polyacrylamide gel containing 8 M urea. Rate of phosphodiester bond formation (kpol) and the apparent dNTP dissociation constant (KD) were extracted as previously reported ([16]). Fidelity was calculated using the catalytic specificity (kpol/KD) for correct (dGTP) and incorrect (dCTP): (kpol/KD)correct/(kpol/KD) incorrect ([37]).
# [2] = molecular target: T2, K289M pol β (Homo sapiens, UniProt P06746, K289M); test: Single turnover polymerase activity (rapid-quench), K289M pol β; assay type: biochemical; conditions: for Specificity (kpol/KD) / kpol / Kd: templating base C; for Kd: apparent dNTP dissociation constant; for D KD (i/c): KD(incorrect)/KD(correct) / D kpol (c/i): kpol(correct)/kpol(incorrect): dCTP incorrect, dGTP correct
# T2 construct: made in house
# Protocol: as §1
# [3] = set-up: method as in earlier work; conditions: pKa4 of the leaving group (β,γ-bridging group modified) ref 19, 22, 23; cited from earlier work
# [4] = APC in Control sequence, listed as O
# [5] = Control in APC sequence, listed as O
SMILES,Specificity (kpol/KD) ([1]; APC in Control sequence),kpol ([1]; APC in Control sequence),Specificity (kpol/KD) ([1]; APC sequence),kpol ([1]; APC sequence),Specificity (kpol/KD) ([1]; Control in APC sequence),kpol ([1]; Control in APC sequence),Specificity (kpol/KD) ([1]; Control sequence),kpol ([1]; Control sequence),Kd ([1]; APC in Control sequence),Kd ([1]; APC sequence),Kd ([1]; Control in APC sequence),Kd ([1]; Control sequence),Specificity (kpol/KD) ([2]; APC in Control sequence),kpol ([2]; APC in Control sequence),kpol ([2]; APC sequence),kpol ([2]; Control sequence),Kd ([2]; APC in Control sequence),Kd ([2]; APC sequence),Kd ([2]; Control in APC sequence),Kd ([2]; Control sequence),other results
Nc1nc2c(ncn2C2CC(O)C(COP(=O)(O)OP(=O)(O)C(Cl)P(=O)(O)O)O2)c(=O)[nH]1 (mixture of isomers) [CHCl],2.9e+06 M⁻¹ s⁻¹,21.7 s⁻¹,2.6e+06 M⁻¹ s⁻¹,20.3 s⁻¹,2.1e+06 M⁻¹ s⁻¹,11.9 s⁻¹,1.18e+07 M⁻¹ s⁻¹,5.90 s⁻¹,7.5 µM,7.8 µM,5.6 µM,0.5 µM,140000 M⁻¹ s⁻¹,1.37 s⁻¹,0.80 s⁻¹,1.18 s⁻¹,10 µM,2 µM,6.5 µM,2.85 µM,Specificity (kpol/KD) ([2]; APC sequence): 400000 M⁻¹ s⁻¹; Specificity (kpol/KD) ([2]; Control in APC sequence): 160000 M⁻¹ s⁻¹; kpol ([2]; Control in APC sequence): 1.01 s⁻¹; Specificity (kpol/KD) ([2]; Control sequence): 410000 M⁻¹ s⁻¹
Nc1nc2c(ncn2C2CC(O)C(COP(=O)(O)OP(=O)(O)C(F)P(=O)(O)O)O2)c(=O)[nH]1 (mixture of isomers) [CHF],4.8e+06 M⁻¹ s⁻¹,25.1 s⁻¹,4.9e+06 M⁻¹ s⁻¹,36.4 s⁻¹,9e+06 M⁻¹ s⁻¹,19.9 s⁻¹,2.4e+06 M⁻¹ s⁻¹,10.2 s⁻¹,5.2 µM,7.5 µM,2.2 µM,4.2 µM,1.31e+06 M⁻¹ s⁻¹,1.36 s⁻¹,0.90 s⁻¹,1.50 s⁻¹,1.04 µM,1.6 µM,1.2 µM,1.3 µM,Specificity (kpol/KD) ([2]; APC sequence): 560000 M⁻¹ s⁻¹; Specificity (kpol/KD) ([2]; Control in APC sequence): 1.25e+06 M⁻¹ s⁻¹; kpol ([2]; Control in APC sequence): 1.50 s⁻¹; Specificity (kpol/KD) ([2]; Control sequence): 1.15e+06 M⁻¹ s⁻¹
Nc1ccn([C@H]2C[C@H](O)[C@@H](COP(=O)(O)OP(=O)(O)OP(=O)(O)O)O2)c(=O)n1 [dCTP],,0.04 s⁻¹,,0.22 s⁻¹,,0.03 s⁻¹,,0.07 s⁻¹,389 µM,340 µM,456 µM,1280 µM,,0.05 s⁻¹,0.05 s⁻¹,0.02 s⁻¹,766 µM,267 µM,758 µM,778 µM,D KD (i/c): KD(incorrect)/KD(correct) ([1]; APC in Control sequence): 111; D KD (i/c): KD(incorrect)/KD(correct) ([1]; APC sequence): 148; D KD (i/c): KD(incorrect)/KD(correct) ([1]; Control in APC sequence): 268; D KD (i/c): KD(incorrect)/KD(correct) ([1]; Control sequence): 639; D KD (i/c): KD(incorrect)/KD(correct) ([2]; APC in Control sequence): 511; D KD (i/c): KD(incorrect)/KD(correct) ([2]; APC sequence): 205; kpol ([2]; Control in APC sequence): 0.02 s⁻¹; D KD (i/c): KD(incorrect)/KD(correct) ([2]; Control in APC sequence): 758; D KD (i/c): KD(incorrect)/KD(correct) ([2]; Control sequence): 778

# The next lines start with results.
Specificity (kpol/KD) ([1]; APC in Control sequence),kpol ([1]; APC in Control sequence),Specificity (kpol/KD) ([1]; APC sequence),kpol ([1]; APC sequence),Specificity (kpol/KD) ([1]; Control in APC sequence),kpol ([1]; Control in APC sequence),Specificity (kpol/KD) ([1]; Control sequence),kpol ([1]; Control sequence),Kd ([1]; APC in Control sequence),Kd ([1]; APC sequence),Kd ([1]; Control in APC sequence),Kd ([1]; Control sequence),Specificity (kpol/KD) ([2]; APC in Control sequence),kpol ([2]; APC in Control sequence),kpol ([2]; APC sequence),kpol ([2]; Control sequence),Kd ([2]; APC in Control sequence),Kd ([2]; APC sequence),Kd ([2]; Control in APC sequence),Kd ([2]; Control sequence),SMILES,other results
900000 M⁻¹ s⁻¹,6.30 s⁻¹,1.3e+06 M⁻¹ s⁻¹,9.00 s⁻¹,1.4e+06 M⁻¹ s⁻¹,3.10 s⁻¹,4.3e+06 M⁻¹ s⁻¹,2.20 s⁻¹,6.9 µM,7.1 µM,2.2 µM,0.5 µM,250000 M⁻¹ s⁻¹,1.17 s⁻¹,0.70 s⁻¹,0.58 s⁻¹,4.75 µM,1.7 µM,1.6 µM,2.2 µM,Nc1nc2c(ncn2[C@H]2C[C@H](O)[C@@H](COP(=O)(O)OP(=O)(O)CP(=O)(O)O)O2)c(=O)[nH]1 [CH2],Specificity (kpol/KD) ([2]; APC sequence): 410000 M⁻¹ s⁻¹; Specificity (kpol/KD) ([2]; Control in APC sequence): 380000 M⁻¹ s⁻¹; kpol ([2]; Control in APC sequence): 0.61 s⁻¹; Specificity (kpol/KD) ([2]; Control sequence): 260000 M⁻¹ s⁻¹
8.1e+06 M⁻¹ s⁻¹,28.5 s⁻¹,1.54e+07 M⁻¹ s⁻¹,35.5 s⁻¹,1.3e+07 M⁻¹ s⁻¹,22.1 s⁻¹,6.3e+06 M⁻¹ s⁻¹,12.6 s⁻¹,3.5 µM,2.3 µM,1.7 µM,2 µM,1e+06 M⁻¹ s⁻¹,1.50 s⁻¹,0.90 s⁻¹,1.52 s⁻¹,1.5 µM,1.3 µM,1 µM,1 µM,Nc1nc2c(ncn2[C@H]2C[C@H](O)[C@@H](COP(=O)(O)OP(=O)(O)OP(=O)(O)O)O2)c(=O)[nH]1 [dGTP],"D kpol (c/i): kpol(correct)/kpol(incorrect) ([1]; APC in Control sequence): 750; D kpol (c/i): kpol(correct)/kpol(incorrect) ([1]; APC sequence): 161; D kpol (c/i): kpol(correct)/kpol(incorrect) ([1]; Control in APC sequence): 737; D kpol (c/i): kpol(correct)/kpol(incorrect) ([1]; Control sequence): 194; kpol [2, 4]: 1.53 s⁻¹; D kpol (c/i): kpol(correct)/kpol(incorrect) ([2]; APC in Control sequence): 30; Specificity (kpol/KD) ([2]; APC sequence): 690000 M⁻¹ s⁻¹; D kpol (c/i): kpol(correct)/kpol(incorrect) ([2]; APC sequence): 18; Specificity (kpol/KD) ([2]; Control in APC sequence): 1.37e+06 M⁻¹ s⁻¹; kpol [2, 5]: 1.42 s⁻¹; D kpol (c/i): kpol(correct)/kpol(incorrect) ([2]; Control in APC sequence): 74; Specificity (kpol/KD) ([2]; Control sequence): 1.54e+06 M⁻¹ s⁻¹; D kpol (c/i): kpol(correct)/kpol(incorrect) ([2]; Control sequence): 76; Kd [2, 4]: 1.53 µM; Kd [2, 5]: 1.04 µM; Kd ([2]; Control sequence, listed as O): 0.99 µM; pKa4 [3]: 8.9"
